Laboratory results published in patent US10914726B2, “Method for evaluating protrusion-forming ability of cell spheroids” (priority 2017, dated 2021).

Key:
[1] = system: MDA-MB231 cells; assay: Live/dead determination of gel-embedded cell spheroids treated with anticancer agents; assay type: cell-based, human; settings: 48 hours, Batimastat 4 μM, Staurosporine 1 μM; for number of dead cells (share of cells) / Number of Dead cells / Number of Living cells: MDA-MB231 spheroid in Matrigel; for Number of Dead cells: green fluorescence cell nuclei counted; for Number of Living cells: red fluorescence cell nuclei counted
Experimental: (§1) The protrusion-forming ability of the cell spheroids of the cancer cells treated with various anticancer agents was examined. As the cancer cells, MDA-MB231 cells of a cultured cell strain established from a human breast cancer cells were used. MDA-MB 231 cells were cultured under a condition with a temperature of 37° C. and a CO2 concentration of 5 vol % in a culture medium of DMEM containing 10% FBS.
(§2) Two thousand MDA-MB 231 cells and 5 μL of 10×Spheroid Formation ECM (manufactured by Trevigen, Inc.) were mixed in a culture medium to prepare a cancer cell solution of which the final amount was adjusted to 50 μL using DMEM (phenol red free), and then 50 μL of the cancer cell solution was injected into one well of the U bottom plate for forming a cell spheroid “Prime Surface (registered trade mark) U plate” (manufactured by Sumitomo Bakelite Co., LTD.), followed by culturing the cells for 72 hours to form cell spheroids.
The culture medium was removed from the U bottom plate as much as possible by suction while paying attention not to suck the spheroids, followed by carefully adding 100 μL of Matrigel (manufactured by Corning Incorporated) to the well. The U bottom plate was allowed to stand in an incubator at 37° C. for 1 hour, and the gel was cured to construct a cell spheroid embedded in a gel.
100 μL of culture mediums containing L-Sulforaphane (final concentration: 10 μM), Batimastat (final concentration: 4 μM), Mitomycin C (final concentration: 10 μM), Paclitaxel (final concentration: 4 μM), or Staurosporine (final concentration: 1 μM) was added on the gel in which the cell spheroids were embedded, and then 0.1 μL ( 1/1000 of the culture medium amount) of “Nuclear ID green/red cell viability reagent” (manufactured by Enzo Life Science, Inc.) was further added thereto, followed by culturing them for 48 hours to infiltrate. By adding the live/dead determination reagent, the living cells were stained with red fluorescence and the dead cells were stained with green fluorescence. As a control, a cultivation in which a culture medium containing only the live/dead determination reagent was used was carried out in the same manner as the above-described cultivation except that the anticancer agents were not added.
The fluorescently labeled samples prepared in the above-described sections <Anticancer Agent Treatment and Treatment for Live/dead Determination> and <Anticancer Agent Treatment and Actin Staining> were imaged with a confocal laser microscope “FV 1200” (manufactured by Olympus Corporation). A 20-fold objective lens ([…]×20) was used to image, and the Z-slice interval was 2 μm. The total number of Z-slices was 60 to 100.
The series of plane tomographic image groups obtained by imaging the respective fluorescently labeled samples were superimposed to construct a stereoscopic image. The obtained stereoscopic image was binarized to obtain a binarized image.
For the binarized images obtained from the fluorescently labeled samples treated with the live/dead determination reagent, the number of cell nuclei of red fluorescence and green fluorescent were measured.

[2] = system: MDA-MB231 cells; assay: Evaluation of protrusion-forming ability of cell spheroids from stereoscopic image (central sphere volume ratio); assay type: cell-based, human; settings: 48 hours, L-Sulforaphane 10 μM, Batimastat 4 μM, Mitomycin C 10 μM, Paclitaxel 4 μM, Staurosporine 1 μM
Experimental: as §1, §2
The culture medium was removed from the U bottom plate as much as possible by suction while paying attention not to suck the spheroids, followed by carefully adding 100 μL of Matrigel (manufactured by Corning Incorporated) to the well. The U bottom plate was allowed to stand in an incubator at 37° C. for 1 hour, and the gel was cured to construct a cell spheroid embedded in a gel. […]

CNC(=O)[C@H](Cc1ccccc1)NC(=O)[C@H](CC(C)C)[C@H](CSc1cccs1)C(=O)NO [Batimastat]
number of dead cells (share of cells) [1]: about 24% | Number of Dead cells [1]: 562 | Number of Living cells [1]: 1738

CO[C@@]12[C@H](COC(N)=O)C3=C(C(=O)C(C)=C(N)C3=O)N1C[C@@H]1N[C@@H]12 [Mitomycin C]
central sphere volume ratio ([volume of non-protrusion part]/[total volume of cell spheroid]) from stereoscopic image ([2]; FIG. 3, actin staining): higher central sphere volume ratio as compared with the remaining three anticancer agent-treated samples | protrusion formation / protrusion-forming ability ([2]; stereoscopic image): suppressed more strongly

CN[C@@H]1C[C@H]2O[C@@](C)([C@@H]1OC)n1c3ccccc3c3c4c(c5c6ccccc6n2c5c31)C(=O)NC4 [Staurosporine]
number of dead cells (share of cells) [1]: about 70% | Number of Dead cells [1]: 1631 ± 414 | Number of Living cells [1]: 576 ± 67 | induction of cell death ([1]; MDA-MB231 spheroid): cell death was induced
